According to US12435060B2, “Acylamino bridged heterocyclic compound, and composition and application thereof” (BEIJING SCITECH-MQ PHARMACEUTICALS LIMITED, priority 2019, dated 2025):

Tested on: HT29 cells
Test: Inhibition of cell necrosis (CCK8 method), induced programmed necrosis of HT29 cells
Assay type: cell-based
Conditions: Homo sapiens, HT-29; rescue from necrosis induced by TNF-α 20 ng/mL, AT-406 1 μM, Z-VAD-FMK 20 μM; 16-20 hours; CCK-8, OD 450 nm
Outline: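 HT29 cells in McCOY's 5A with 10% FBS were pre-treated for 30 min with compound (9 fourfold steps, 25000 to 0.38 nM final, 0.25% DMSO). Necrosis was then induced with TNF-α 20 ng/mL, AT-406 1 μM and Z-VAD-FMK 20 μM for 16-20 h. Viability was read by CCK-8 OD450, normalized between uninduced and induced wells, and IC50 was curve-fitted.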

Row | SMILES | IC50
1 | COCCOc1ccc(Cl)c(-c2ccnc(NC(=O)c3nnc(CC4CCCCC4)[nH]3)c2)c1 [Example 382, N-(4-(2-chloro-5-(2-methoxyethoxy)phenyl)pyridin-2-yl)-5-(cyclohexylmethyl)-4H-1,2,4-triazole-3-carboxamide] | ≤ 100 nM
2 | O=C(Nc1cc(-c2cc(OCC3CCOCC3)ccc2F)c(F)cn1)c1nnc(Cc2ccccc2F)[nH]1 [Example 327, N-(5-fluoro-4-(2-fluoro-5-((tetrahydro-2H-pyran-4-yl)methoxy)phenyl)pyridin-2-yl)-5-(2-fluorobenzyl)-4H-1,2,4-triazole-3-carboxamide] | ≤ 100 nM
3 | CC(C)(O)CCCCOc1ccc(Cl)c(-c2ccnc(NC(=O)c3nnc(Cc4ccccc4F)[nH]3)c2)c1 [Example 368, 5-(2-fluorobenzyl)-N-(4-(2-chloro-5-((5-hydroxyl-5-methylhexyl)oxy)phenyl)pyridin-2-yl)-4H-1,2,4-triazole-3-carboxamide] | ≤ 100 nM
4 | Cc1ccc(C(=O)NCCC(C)(C)O)cc1-c1ccnc(NC(=O)c2nnc(CC3CCCC3)[nH]2)c1 [Example 488, 5-(cyclopentylmethyl)-N-(4-(5-((3-hydroxyl-3-methylbutyl)carbamoyl)-2-methylphenyl)pyridin-2-yl)-4H-1,2,4-triazole-3-carboxamide] | ≤ 100 nM
5 | C#Cc1ccc(OCCOC(C)(C)C)cc1-c1ccnc(NC(=O)c2nnc(Cc3ccccc3)[nH]2)c1 [Example 311, 5-benzyl-N-(4-(5-(2-(tert-butoxy)ethoxy)-2-ethynylphenyl)pyridin-2-yl)-4H-1,2,4-triazole-3-carboxamide] | 100 to 1000 nM
6 | Cc1ccc(OCCN2CCCCC2)cc1-c1ccnc(NC(=O)c2nnc(Cc3ccccc3)[nH]2)c1 [Example 228, 5-benzyl-N-(4-(2-methyl-5-(2-(piperidin-1-yl)ethoxy)phenyl)pyridin-2-yl)-4H-1,2,4-triazole-3-carboxamide] | 100 to 1000 nM
7 | COCCCN(C)c1ccc(C)c(-c2ccnc(NC(=O)c3nnc(Cc4ccccc4)[nH]3)c2)c1 [Example 58, 5-benzyl-N-(4-(5-((3-methoxypropyl)(methyl)amino)-2-methylphenyl)pyridin-2-yl)-4H-1,2,4-triazole-3-carboxamide] | 100 to 1000 nM
8 | O=C(Nc1cc(-c2cc(OCC3CCOCC3)ccc2Cl)c(F)cn1)c1nnc(CC2CCCCC2)[nH]1 [Example 423, N-(4-(2-chloro-5-((tetrahydro-2H-pyran-4-yl)methoxy)phenyl)-5-fluoropyridin-2-yl)-5-(cyclohexylmethyl)-4H-1,2,4-triazole-3-carboxamide] | ≤ 100 nM
9 | Cc1ccc(OCCCCC(C)(C)O)cc1-c1cc(NC(=O)c2nnc(CC3CCCCC3)[nH]2)ncc1Cl [Example 248, 5-(cyclohexylmethyl)-N-(5-chloro-4-(5-((5-hydroxyl-5-methylhexyl)oxy)-2-methylphenyl)pyridin-2-yl)-4H-1,2,4-triazole-3-carboxamide] | 100 to 1000 nM
10 | Cc1ccc(OCCC2CCOCC2)cc1-c1cc(NC(=O)c2nnc(Cc3ccccc3F)[nH]2)ncc1F [Example 498, N-(5-fluoro-4-(2-methyl-5-(2-(tetrahydro-2H-pyran-4-yl)ethoxy)phenyl)pyridin-2-yl)-5-(2-fluorobenzyl)-4H-1,2,4-triazole-3-carboxamide] | ≤ 100 nM
11 | CCOCCOc1ccc(C)c(-c2ccnc(NC(=O)c3nnc(Cc4ccccc4)[nH]3)c2)c1 [Example 131, 5-benzyl-N-(4-(5-(2-ethoxyethoxy)-2-methylphenyl)pyridin-2-yl)-4H-1,2,4-triazole-3-carboxamide] | ≤ 100 nM
12 | Cc1ccc(OCCN2CCCCC2)cc1-c1ccnc(NC(=O)c2nnc(Cc3cc(F)ccc3F)[nH]2)c1 [Example 231, 5-(2,5-difluorobenzyl)-N-(4-(2-methyl-5-(2-(piperidin-1-yl)ethoxy)phenyl)pyridin-2-yl)-4H-1,2,4-triazole-3-carboxamide] | 100 to 1000 nM
13 | Cc1ccc(OCCC2CCOCC2)cc1-c1cc(NC(=O)c2nnc(CC3CCCCC3)[nH]2)ncc1C [Example 254, 5-(cyclohexylmethyl)-N-(5-methyl-4-(2-methyl-5-(2-(tetrahydro-2H-pyran-4-yl)ethoxy)phenyl)pyridin-2-yl)-4H-1,2,4-triazole-3-carboxamide] | 100 to 1000 nM
14 | Cc1ccc(OCC(C)(C)O)cc1-c1ccnc(NC(=O)c2nnc(Cc3ccccc3)[nH]2)c1 [Example 117, 5-benzyl-N-(4-(5-(2-hydroxyl-2-methylpropoxy)-2-methylphenyl)pyridin-2-yl)-4H-1,2,4-triazole-3-carboxamide] | ≤ 100 nM
15 | Cc1cc(Cc2nnc(C(=O)Nc3cc(-c4cc(OCCCC(C)(C)O)ccc4Cl)ccn3)[nH]2)ccc1F [Example 345, N-(4-(2-chloro-5-((4-hydroxy-4-methylpentyl)oxy)phenyl)pyridin-2-yl)-5-(4-fluoro-3-methylbenzyl)-4H-1,2,4-triazole-3-carboxamide] | 100 to 1000 nM
16 | O=C(Nc1cc(-c2cc(OCCC3CCOCC3)ccc2Cl)c(Cl)cn1)c1nnc(CC2CCCCC2)[nH]1 [Example 431, N-(5-chloro-4-(2-chloro-5-(2-(tetrahydro-2H-pyran-4-yl)ethoxy)phenyl)pyridin-2-yl)-5-(cyclohexylmethyl)-4H-1,2,4-triazole-3-carboxamide] | 100 to 1000 nM
17 | CCC(O)(CC)CCCOc1ccc(Cl)c(-c2ccnc(NC(=O)c3nnc(CC4CCCC4)[nH]3)c2)c1 [Example 361, N-(4-(2-chloro-5-((4-ethyl-4-hydroxyhexyl)oxy)phenyl)pyridin-2-yl)-5-(cyclopentylmethyl)-4H-1,2,4-triazole-3-carboxamide] | ≤ 100 nM
18 | COCCCOc1ccc(C)c(-c2ccnc(NC(=O)c3nnc(CC4CCCC4)[nH]3)c2)c1 [Example 144, 5-(cyclopentylmethyl)-N-(4-(5-(3-methoxypropoxy)-2-methylphenyl)pyridin-2-yl)-4H-1,2,4-triazole-3-carboxamide] | ≤ 100 nM
19 | CC(C)(O)COc1ccc(C(F)(F)F)c(-c2ccnc(NC(=O)c3nnc(Cc4ccccc4)[nH]3)c2)c1 [Example 264, 5-benzyl-N-(4-(5-(2-hydroxyl-2-methylpropoxy)-2-(trifluoromethyl)phenyl)pyridin-2-yl)-4H-1,2,4-triazole-3-carboxamide] | ≤ 100 nM
20 | CC(C)(O)CCCCOc1ccc(C(F)(F)F)c(-c2ccnc(NC(=O)c3nnc(Cc4ccccc4)[nH]3)c2)c1 [Example 268, 5-benzyl-N-(4-(5-((5-hydroxyl-5-methylhexyl)oxy)-2-(trifluoromethyl)phenyl)pyridin-2-yl)-4H-1,2,4-triazole-3-carboxamide] | ≤ 100 nM
21 | CC(C)(O)CCCOc1ccc(Cl)c(-c2ccnc(NC(=O)c3nnc(Cc4cc(F)cc(C(F)(F)F)c4)[nH]3)c2)c1 [Example 348, N-(4-(2-chloro-5-((4-hydroxy-4-methylpentyl)oxy)phenyl)pyridin-2-yl)-5-(3-fluoro-5-(trifluoromethyl)benzyl)-4H-1,2,4-triazole-3-carboxamide] | 1000 to 10000 nM
22 | CC(C)(C)OCCOc1ccc(C(F)(F)F)c(-c2ccnc(NC(=O)c3nnc(CC4CCCCC4)[nH]3)c2)c1 [Example 294, 5-(cyclohexylmethyl)-N-(4-(5-(2-(tert-butoxy)ethoxy)-2-(trifluoromethyl)phenyl)pyridin-2-yl)-4H-1,2,4-triazole-3-carboxamide] | ≤ 100 nM
23 | Cc1ccc(OCCCC(C)(C)O)cc1-c1ccnc(NC(=O)c2nnc(CC3CCC3)[nH]2)c1 [Example 172, 5-(cyclobutylmethyl)-N-(4-(5-((4-hydroxy-4-methylpentyl)oxy)-2-methylphenyl)pyridin-2-yl)-4H-1,2,4-triazole-3-carboxamide] | ≤ 100 nM
24 | Cc1ccc(OCCCCC(C)(C)O)cc1-c1ccnc(NC(=O)c2nnc(CC3CCCC3)[nH]2)c1 [Example 223, 5-(cyclopentylmethyl)-N-(4-(5-((5-hydroxyl-5-methylhexyl)oxy)-2-methylphenyl)pyridin-2-yl)-4H-1,2,4-triazole-3-carboxamide] | ≤ 100 nM
25 | Cc1ccc(OCCCC(C)(C)O)cc1-c1ccnc(NC(=O)c2nnc(CC3CCCCC3)[nH]2)c1 [Example 175, 5-(cyclohexylmethyl)-N-(4-(5-((4-hydroxy-4-methylpentyl)oxy)-2-methylphenyl)pyridin-2-yl)-4H-1,2,4-triazole-3-carboxamide] | ≤ 100 nM
26 | CCOCCOc1ccc(Cl)c(-c2ccnc(NC(=O)c3nnc(Cc4ccccc4F)[nH]3)c2)c1 [Example 384, 5-(2-fluorobenzyl)-N-(4-(2-chloro-5-(2-ethoxyethoxy)phenyl)pyridin-2-yl)-4H-1,2,4-triazole-3-carboxamide] | ≤ 100 nM
27 | O=C(Nc1cc(-c2cc(OCCCCO)ccc2C(F)(F)F)ccn1)c1nnc(Cc2ccccc2)[nH]1 [Example 272, 5-benzyl-N-(4-(5-(4-hydroxybutoxy)-2-(trifluoromethyl)phenyl)pyridin-2-yl)-4H-1,2,4-triazole-3-carboxamide] | ≤ 100 nM
28 | O=C(Nc1cc(-c2cc(OCCCCO)ccc2Cl)ccn1)c1nnc(CC2CCCCC2)[nH]1 [Example 374, N-(4-(2-chloro-5-(4-hydroxybutoxy)phenyl)pyridin-2-yl)-5-(cyclohexylmethyl)-4H-1,2,4-triazole-3-carboxamide] | ≤ 100 nM
29 | Cc1ccc(OCCC2OCCO2)cc1-c1ccnc(NC(=O)c2nnc(Cc3ccccc3)[nH]2)c1 [Example 137, N-(4-(5-(2-(1,3-dioxolan-2-yl)ethoxy)-2-methylphenyl)pyridin-2-yl)-5-benzyl-4H-1,2,4-triazole-3-carboxamide] | ≤ 100 nM
30 | Cc1ccc(OCCCC(C)(C)O)cc1-c1cc(NC(=O)c2nnc(Cc3cc(F)ccc3F)[nH]2)ncn1 [Example 436, 5-(2,5-difluorobenzyl)-N-(6-(5-((4-hydroxy-4-methylpentyl)oxy)-2-methylphenyl)pyrimidin-4-yl)-4H-1,2,4-triazole-3-carboxamide] | ≤ 100 nM
